Molecular target: human F508del-CFTR (Homo sapiens, UniProt P13569, DEL508-508)
Experiment: F508del-CFTR cell surface expression (corrector activity), DiscoveRx ß-galactosidase complementation chemiluminescence assay in recombinant U2OS cell line;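 also: U2OS cells co-expressing ProLink-tagged F508del-CFTR and a membrane-anchored enzyme acceptor, where more surface CFTR restores β-galactosidase activity measured by chemiluminescence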
Conditions: U2OS cells, 16h compound incubation; for EC50: EC50, F508del-CFTR cell surface expression, geomean of several measurements; for Emax: U2OS, in relation to the Emax of the corrector lumacaftor (=100%), arithmetic mean

Chain of human F508del-CFTR (P13569 with tags, fused parts or gaps DEL508-508): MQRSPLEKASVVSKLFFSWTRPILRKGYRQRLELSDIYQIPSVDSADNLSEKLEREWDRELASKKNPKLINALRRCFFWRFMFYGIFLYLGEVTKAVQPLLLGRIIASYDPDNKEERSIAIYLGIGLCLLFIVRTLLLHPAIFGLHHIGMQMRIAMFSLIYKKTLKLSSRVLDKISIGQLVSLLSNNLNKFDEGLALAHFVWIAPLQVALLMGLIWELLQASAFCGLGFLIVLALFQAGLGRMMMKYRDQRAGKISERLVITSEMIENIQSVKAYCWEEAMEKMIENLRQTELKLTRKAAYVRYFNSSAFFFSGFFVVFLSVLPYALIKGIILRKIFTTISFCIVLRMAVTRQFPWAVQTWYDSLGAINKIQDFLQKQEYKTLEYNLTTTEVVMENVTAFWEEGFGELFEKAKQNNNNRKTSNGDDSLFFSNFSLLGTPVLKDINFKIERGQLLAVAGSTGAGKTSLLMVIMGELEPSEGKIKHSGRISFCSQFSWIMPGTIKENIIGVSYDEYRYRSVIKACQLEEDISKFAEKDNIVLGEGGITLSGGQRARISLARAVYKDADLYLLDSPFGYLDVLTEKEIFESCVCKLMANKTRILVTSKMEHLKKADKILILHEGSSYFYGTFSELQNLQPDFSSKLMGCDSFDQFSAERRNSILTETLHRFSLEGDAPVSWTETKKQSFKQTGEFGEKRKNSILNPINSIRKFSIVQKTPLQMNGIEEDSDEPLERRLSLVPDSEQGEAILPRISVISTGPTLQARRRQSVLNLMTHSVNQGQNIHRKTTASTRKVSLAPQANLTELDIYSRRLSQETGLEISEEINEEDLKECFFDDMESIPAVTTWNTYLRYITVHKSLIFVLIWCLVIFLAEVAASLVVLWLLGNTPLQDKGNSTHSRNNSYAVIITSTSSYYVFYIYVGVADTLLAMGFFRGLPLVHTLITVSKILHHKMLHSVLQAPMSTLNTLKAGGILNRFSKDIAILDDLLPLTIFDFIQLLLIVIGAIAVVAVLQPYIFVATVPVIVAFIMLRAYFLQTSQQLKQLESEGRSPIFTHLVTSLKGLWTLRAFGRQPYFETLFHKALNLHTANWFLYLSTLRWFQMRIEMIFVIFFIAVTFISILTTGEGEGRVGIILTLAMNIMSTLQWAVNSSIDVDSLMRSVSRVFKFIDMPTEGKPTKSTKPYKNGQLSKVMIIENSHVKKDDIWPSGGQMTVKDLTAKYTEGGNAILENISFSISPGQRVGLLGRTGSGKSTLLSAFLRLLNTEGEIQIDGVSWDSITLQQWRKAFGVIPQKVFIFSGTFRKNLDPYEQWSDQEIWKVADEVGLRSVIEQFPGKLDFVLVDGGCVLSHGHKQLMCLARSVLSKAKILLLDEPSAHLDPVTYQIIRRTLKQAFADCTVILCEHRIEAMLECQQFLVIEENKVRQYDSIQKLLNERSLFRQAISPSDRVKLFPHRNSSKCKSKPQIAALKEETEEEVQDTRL

EC50	Emax	SMILES
337 nM	324%	COc1nc(C)cc2c1C(=O)N[C@H](C(=O)NCCc1cc(C)no1)CC(=O)N(C)[C@@H](CC(C)C)C(=O)N(C)[C@H](C(C)(C)C)C(=O)N[C@H](Cc1ccccc1)CO2 [Example 866, (3R,6R,9S,13S)-3-benzyl-6-(tert-butyl)-9-isobutyl-16-methoxy-7,10,18-trimethyl-N-(2-(3-methylisoxazol-5-yl)ethyl)-5,8,11,15-tetraoxo-2,3,4,5,6,7,8,9,10,11,12,13,14,15-tetradecahydropyrido[3,4-p][1]oxa[4,7,10,14]tetraazacycloheptadecine-13-carboxamide]
18 nM	397%	COCCc1ccc(-c2noc(C[C@@H]3C(=O)N[C@H](Cc4ccccc4)COc4ccnc(OC)c4C(=O)N[C@H](C(=O)NCCc4cc(OC)no4)CC(=O)N(C)[C@@H](CC(C)C)C(=O)N3C)n2)cc1 [Example 868, (3R,6R,9S,13S)-3-benzyl-9-isobutyl-16-methoxy-6-((3-(4-(2-methoxyethyl)phenyl)-1,2,4-oxadiazol-5-yl)methyl)-N-(2-(3-methoxyisoxazol-5-yl)ethyl)-7,10-dimethyl-5,8,11,15-tetraoxo-2,3,4,5,6,7,8,9,10,11,12,13,14,15-tetradecahydropyrido[3,4-p][1]oxa[4,7,10,14]tetraazacycloheptadecine-13-carboxamide]
358 nM	305%	COc1cc2c(c(OC)n1)C(=O)N[C@H](C(=O)NCCc1cc(C)no1)CC(=O)N(C)[C@@H](CC(C)C)C(=O)N1CCCC[C@@H]1C(=O)N[C@H](Cc1ccccc1)CO2 [Example 869, (7S,11S,17aR,20R)-20-benzyl-11-isobutyl-2,4-dimethoxy-10-methyl-N-(2-(3-methylisoxazol-5-yl)ethyl)-5,9,12,18-tetraoxo-5,6,7,8,9,10,11,12,15,16,17,17a,18,19,20,21-hexadecahydro-14H-dipyrido[2,1-f:3′,4′-p][1]oxa[4,7,10,14]tetraazacycloheptadecine-7-carboxamide]
201 nM	316%	COc1cc2c(c(OC)n1)C(=O)N[C@H](C(=O)NCCc1cc(C3CC3)no1)CC(=O)N(C)[C@@H](CC(C)C)C(=O)N1CCCC[C@@H]1C(=O)N[C@H](Cc1ccccc1)CO2 [Example 870, (7S,11S,17aR,20R)-20-benzyl-N-(2-(3-cyclopropylisoxazol-5-yl)ethyl)-11-isobutyl-2,4-dimethoxy-10-methyl-5,9,12,18-tetraoxo-5,6,7,8,9,10,11,12,15,16,17,17a,18,19,20,21-hexadecahydro-14H-dipyrido[2,1-f:3′,4′-p][1]oxa[4,7,10,14]tetraazacycloheptadecine-7-carboxamide]
32 nM	378%	COCCc1ccc(-c2noc(C[C@@H]3C(=O)N[C@H](Cc4ccccc4)COc4ccnc(OC)c4C(=O)N[C@H](C(=O)NCCn4ncc(C5CC5)n4)CC(=O)N(C)[C@@H](CC(C)C)C(=O)N3C)n2)cc1 [Example 871, (3R,6R,9S,13S)-3-benzyl-N-(2-(4-cyclopropyl-2H-1,2,3-triazol-2-yl)ethyl)-9-isobutyl-16-methoxy-6-((3-(4-(2-methoxyethyl)phenyl)-1,2,4-oxadiazol-5-yl)methyl)-7,10-dimethyl-5,8,11,15-tetraoxo-2,3,4,5,6,7,8,9,10,11,12,13,14,15-tetradecahydropyrido[3,4-p][1]oxa[4,7,10,14]tetraazacycloheptadecine-13-carboxamide]
535 nM	318%	COc1noc(CCNC(=O)[C@@H]2CC(=O)N(C)[C@@H](CC(C)C)C(=O)N(C)C3(CC3)C(=O)N[C@H](Cc3ccccc3)COc3cnc4ccccc4c3C(=O)N2)n1 [Example 872, (3′S,7′S,13′R)-13′-benzyl-7′-isobutyl-N-(2-(3-methoxy-1,2,4-oxadiazol-5-yl)ethyl)-6′,9′-dimethyl-1′,5′,8′,11′-tetraoxo-2′,3′,4′,5′,6′,7′,8′,9′,11′,12′,13′,14′-dodecahydro-1′H-spiro[cyclopropane-1,10′-[1]oxa[4,7,10,14]tetraazacycloheptadecino[17,16-c]quinoline]-3′-carboxamide]
66 nM	332%	COc1nc(C)cc2c1C(=O)N[C@H](C(=O)NCCc1cc(C)no1)CC(=O)N(C)[C@@H](CC(C)C)C(=O)N(C)[C@H](CCc1ccccc1)C(=O)N[C@H](Cc1ccccc1)CO2 [Example 874, (3R,6R,9S,13S)-3-benzyl-9-isobutyl-16-methoxy-7,10,18-trimethyl-N-(2-(3-methylisoxazol-5-yl)ethyl)-5,8,11,15-tetraoxo-6-phenethyl-2,3,4,5,6,7,8,9,10,11,12,13,14,15-tetradecahydropyrido[3,4-p][1]oxa[4,7,10,14]tetraazacycloheptadecine-13-carboxamide]
113 nM	317%	COc1nc(C)cc2c1C(=O)N[C@H](C(=O)NCCc1cc(C)no1)CC(=O)N(C)[C@@H](CC(C)C)C(=O)N(C)[C@H](CC(C)(C)C)C(=O)N[C@H](Cc1ccccc1)CO2 [Example 876, (3R,6R,9S,13S)-3-benzyl-9-isobutyl-16-methoxy-7,10,18-trimethyl-N-(2-(3-methylisoxazol-5-yl)ethyl)-6-neopentyl-5,8,11,15-tetraoxo-2,3,4,5,6,7,8,9,10,11,12,13,14,15-tetradecahydropyrido[3,4-p][1]oxa[4,7,10,14]tetraazacycloheptadecine-13-carboxamide]

SMILES	EC50	Emax
COCCc1ccc(-c2noc(C[C@@H]3C(=O)N[C@H](Cc4ccccc4)COc4ccnc(OC)c4C(=O)N[C@H](C(=O)NCCc4noc(C5CC5)n4)CC(=O)N(C)[C@@H](CC(C)C)C(=O)N3C)n2)cc1 [Example 867, (3R,6R,9S,13S)-3-benzyl-N-(2-(5-cyclopropyl-1,2,4-oxadiazol-3-yl)ethyl)-9-isobutyl-16-methoxy-6-((3-(4-(2-methoxyethyl)phenyl)-1,2,4-oxadiazol-5-yl)methyl)-7,10-dimethyl-5,8,11,15-tetraoxo-2,3,4,5,6,7,8,9,10,11,12,13,14,15-tetradecahydropyrido[3,4-p][1]oxa[4,7,10,14]tetraazacycloheptadecine-13-carboxamide]	31 nM	413%
COc1cccc(CCNC(=O)[C@@H]2CC(=O)N(C)[C@@H](CC(C)C)C(=O)N(C)[C@H](CC(C)(C)C)C(=O)N[C@H](Cc3ccccc3)COc3cc(C)nc(OC)c3C(=O)N2)c1 [Example 873, (3R,6R,9S,13S)-3-benzyl-9-isobutyl-16-methoxy-N-(3-methoxyphenethyl)-7,10,18-trimethyl-6-neopentyl-5,8,11,15-tetraoxo-2,3,4,5,6,7,8,9,10,11,12,13,14,15-tetradecahydropyrido[3,4-p][1]oxa[4,7,10,14]tetraazacycloheptadecine-13-carboxamide]	41 nM	336%
COc1cccc(CCNC(=O)[C@@H]2CC(=O)N(C)[C@@H](CC(C)C)C(=O)N(C)[C@H](CCc3ccccc3)C(=O)N[C@H](Cc3ccccc3)COc3cc(C)nc(OC)c3C(=O)N2)c1 [Example 875, (3R,6R,9S,13S)-3-benzyl-9-isobutyl-16-methoxy-N-(3-methoxyphenethyl)-7,10,18-trimethyl-5,8,11,15-tetraoxo-6-phenethyl-2,3,4,5,6,7,8,9,10,11,12,13,14,15-tetradecahydropyrido[3,4-p][1]oxa[4,7,10,14]tetraazacycloheptadecine-13-carboxamide]	21 nM	333%
